Literature values, collected in patent publication US20160007613A1, “Clonostachys rosea Inoculated Plant Materials with Fungicides and Adjuvants” (priority 2014, published 2016).

Test system: Clonostachys rosea ACM941
Settings: research by Sutton and Brown; in words

SMILES | toxicity to Clonostachys rosea ACM941
COCC(=O)N(c1c(C)cccc1C)C(C)C(=O)OC (centres unmarked) [metalaxyl] | not metalaxyl is toxic
CN(C)C(=S)SSC(=S)N(C)C [thiram] | toxic
